In US11401271B2, “Fused heterocyclic compound, pyrazole-ring-containing fused heterocyclic compound, agricultural composition containing thereof, and method of using the composition” (SOUTH CHINA AGRICULTURAL UNIVERSITY, priority 2017, dated 2022):
Read-outs that look alike come from different tables or passages of the source.

Key:
Assay in all cases: whole plant or invertebrate
Assay type in all cases: in vivo
Aphis craccivora = conditions: for Aphis craccivora Mortality (%) / Aphis craccivora Mortality (%) 500 ppm: 500 ppm, wingless adults; for Aphis craccivora Mortality (%): immersion 5 seconds, counted after 24 hours; for mortality at 500 ppm: Aphis craccivora, 24 h, read-out: Aphis craccivora Mortality (%) 500 ppm; for Aphis craccivora Mortality (%) 500 ppm: impregnation method, 24 hours
Summary of the method: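 Wingless adults feeding on bean sprouts were dipped with the sprouts for 5 s in 500 ppm compound in aqueous 0.05% Tween-80, air-dried, then held at 23° C. Dead aphids counted after 24 h, triplicate, with 0.05% Tween-80 as control. Mortality (%) = (control live − treated live)/control live × 100.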

Plutella xylostella = conditions: for Plutella xylostella Mortality (%) / Plutella xylostella Mortality (%) 500 ppm: 500 ppm, 2nd-instar larvae, leaf immersion feeding; for mortality at 500 ppm: Plutella xylostella, read-out: Plutella xylostella Mortality (%) 500 ppm
Summary of the method: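 Cabbage leaf discs dipped 5 s in compound at 500 ppm (0.05% Tween-80 aqueous), air-dried, fed to about 35 2nd-instar larvae at 28° C., triplicate. Dead larvae counted after 24 h; mortality (%) corrected against Tween-80 control.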

Spodoptera exigua = conditions: for Spodoptera exigua Mortality (%) / Spodoptera exigua Mortality (%) 500 ppm: 500 ppm, 2nd-instar larvae, leaf immersion feeding; for mortality at 500 ppm: Spodoptera exigua, 24 h, read-out: Spodoptera exigua Mortality (%) 500 ppm; for Spodoptera exigua Mortality (%) 500 ppm: 24 hours
Summary of the method: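 Cabbage leaf discs dipped 5 s in 500 ppm compound (0.05% Tween-80 aqueous), air-dried, fed to about 35 2nd-instar larvae at 28° C, three replicates. Deaths counted at 24 h; mortality corrected against Tween-80 control.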

Solenopsis invicta = conditions: water test tube poison-feeding; for Solenopsis invicta Mortality (%) 24 h / Solenopsis invicta Mortality (%) 72 h / Solenopsis invicta Mortality (%) 100 ppm 24 h / Solenopsis invicta Mortality (%) 100 ppm 72 h: 100 ppm; for mortality at 100 ppm: Solenopsis invicta
Summary of the method: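 Fire ants fed compound by water test-tube poison-feeding at 100 ppm in aqueous 0.05% Tween-80/5% honey (from 10 g/L DMSO stock), kept at 25 °C. Live and dead ants counted at 24 and 72 h; mortality (%) calculated relative to live ants in the untreated control.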

[1] = 24 h, read-out: Solenopsis invicta Mortality (%) 100 ppm 24 h, 100 ppm, 24 h
[2] = 72 h, read-out: Solenopsis invicta Mortality (%) 100 ppm 72 h, 100 ppm, 72 h

| Molecule | Aphis craccivora Mortality (%) (Aphis craccivora) | Plutella xylostella Mortality (%) (Plutella xylostella) | Spodoptera exigua Mortality (%) (Spodoptera exigua) | Solenopsis invicta Mortality (%) 24 h (Solenopsis invicta; 24 h) [%] | Solenopsis invicta Mortality (%) 72 h (Solenopsis invicta; 72 h) [%] | other results |
| --- | --- | --- | --- | --- | --- | --- |
| COC(=O)CC1(C(=O)OC)Nc2c([S+]([O-])C(F)(F)F)c(C#N)nn2-c2ccc(C(F)(F)F)c(Cl)c21 (stereo not shown) [e-7] | 100 | 100 | 100 | 29 | 99 | – |
| COC(=O)C1(CBr)Nc2c([S+]([O-])C(F)(F)F)c(C#N)nn2-c2c(Cl)cc(C(F)(F)F)cc21 (stereo not drawn) [d-34] | 100 | 90 | 95 | 25 | 93 | – |
| COC(=O)C1(CC#N)Nc2c([S+]([O-])C(F)(F)F)c(C#N)nn2-c2cncc(Cl)c21 (stereo not shown) [b-2] | 100 | 100 | 95 | 19 | 93 | – |
| C=CCN(CC)c1cc2n(n1)-c1cnccc1C(F)(CC(F)(F)F)N2 (stereo not shown) [Compound A38] | – | – | – | – | – | mortality at 500 ppm (Aphis craccivora): 100%; mortality at 500 ppm (Plutella xylostella): 100%; mortality at 500 ppm (Spodoptera exigua): 90%; mortality at 100 ppm (Solenopsis invicta; [1]): 26%; mortality at 100 ppm (Solenopsis invicta; [2]): 93% |
| N#Cc1nn2c(c1OC(F)(F)F)NC(CC(=O)C(F)(F)F)c1c(Cl)cncc1-2 (stereo not shown) [b-116] | 100 | 100 | 98 | 20 | 100 | – |
| 9-chloro-2-cyano-3-cyclohexanesulfinyl-5-(2′2-dimethoxy)-7-trifluoromethyl-4,5-dihydropyrazole[1,5-α]quinazoline-5-methyl formate [d-12] | 100 | 86 | 96 | 20 | 100 | – |
| CC(C)(C)Nc1c(C#N)nn2c1NC(C)(C)c1ccccc1-2 [Compound A16] | – | – | – | – | – | mortality at 500 ppm (Aphis craccivora): 100%; mortality at 500 ppm (Plutella xylostella): 86%; mortality at 500 ppm (Spodoptera exigua): 100%; mortality at 100 ppm (Solenopsis invicta; [1]): 20%; mortality at 100 ppm (Solenopsis invicta; [2]): 87% |
| N#CCC1(C(=O)C(F)(F)F)Nc2c([S+]([O-])C(F)(F)F)c(C#N)nn2-c2ncc(C(F)(F)F)cc21 (stereo not shown) [a-30] | – | – | – | – | – | Aphis craccivora Mortality (%) 500 ppm (Aphis craccivora): 100%; Plutella xylostella Mortality (%) 500 ppm (Plutella xylostella): 96%; Spodoptera exigua Mortality (%) 500 ppm (Spodoptera exigua): 90%; Solenopsis invicta Mortality (%) 100 ppm 24 h (Solenopsis invicta; 24 h): 20%; Solenopsis invicta Mortality (%) 100 ppm 72 h (Solenopsis invicta; 72 h): 97% |
| COC(=O)CC1(C(=O)OC)Nc2c([S+]([O-])C(F)(F)F)c(C(C)=O)nn2-c2c(Cl)cc(C(F)(F)F)cc21 (stereo not drawn) [d-8] | 90 | 85 | 82 | 15 | 65 | – |
| COC(=O)CC1(C(=O)C(F)(F)F)Nc2c([S+]([O-])C(F)(F)F)c(C#N)nn2-c2ncc(C(F)(F)F)cc21 (stereo not shown) [a-28] | – | – | – | – | – | Aphis craccivora Mortality (%) 500 ppm (Aphis craccivora): 100%; Plutella xylostella Mortality (%) 500 ppm (Plutella xylostella): 100%; Spodoptera exigua Mortality (%) 500 ppm (Spodoptera exigua): 95%; Solenopsis invicta Mortality (%) 100 ppm 24 h (Solenopsis invicta; 24 h): 23%; Solenopsis invicta Mortality (%) 100 ppm 72 h (Solenopsis invicta; 72 h): 99% |
| N#Cc1nn2c(c1[S+]([O-])C(F)(F)F)NC(Cl)(CBr)c1cc(C(F)(F)F)cnc1-2 (stereo not shown) [a-45] | – | – | – | – | – | Aphis craccivora Mortality (%) 500 ppm (Aphis craccivora): 100%; Plutella xylostella Mortality (%) 500 ppm (Plutella xylostella): 100%; Spodoptera exigua Mortality (%) 500 ppm (Spodoptera exigua): 91%; Solenopsis invicta Mortality (%) 100 ppm 24 h (Solenopsis invicta; 24 h): 20%; Solenopsis invicta Mortality (%) 100 ppm 72 h (Solenopsis invicta; 72 h): 90% |
| CC(=O)C1Nc2c([S+]([O-])C(F)(F)F)c(C(F)(F)F)nn2-c2c(Cl)cc(C(F)(F)F)cc21 (stereo not drawn) [d-112] | 100 | 96 | 80 | 36 | 99 | – |
| COC(=O)C1Nc2c([S+]([O-])C(F)(F)F)c(C#N)nn2-c2ncc(C(F)(F)F)cc21 (stereo not shown) [a-64] | – | – | – | – | – | Aphis craccivora Mortality (%) 500 ppm (Aphis craccivora): 100%; Plutella xylostella Mortality (%) 500 ppm (Plutella xylostella): 100%; Spodoptera exigua Mortality (%) 500 ppm (Spodoptera exigua): 99%; Solenopsis invicta Mortality (%) 100 ppm 24 h (Solenopsis invicta; 24 h): 20%; Solenopsis invicta Mortality (%) 100 ppm 72 h (Solenopsis invicta; 72 h): 99% |
| C=CCN1c2c(C#N)c(SC)nn2-c2ccccc2C1(F)C(F)(F)F (stereo not shown) [Compound A34] | – | – | – | – | – | mortality at 500 ppm (Aphis craccivora): 100%; mortality at 500 ppm (Plutella xylostella): 96%; mortality at 500 ppm (Spodoptera exigua): 100%; mortality at 100 ppm (Solenopsis invicta; [1]): 28%; mortality at 100 ppm (Solenopsis invicta; [2]): 97% |
